# Results reported in PMC8466554, “Heteroaryl-Ethylenes as New Lead Compounds in the Fight against High Priority Bacterial Strains” (Antibiotics, 2021).
# Several values for one entry are separate records, joined by “and”; a condition that tells them apart may be missing. Equal entries are not always repeated. Where two headings read alike, the source gives them in different places.
# Columns and labels:
# [1] = tested on: CaCo-2 cells; assay: MTT cytotoxicity assay; format: cell-based, human; details: 24 h of incubation relative to untreated controls
# Method: To evaluate the biological activity of the PBn series, compounds were screened for toxicity against the colon-rectal cancer cell line CaCo-2 (ATCC HTB-37). These human cancer cells were treated with solutions of the compounds at decreasing concentrations, starting from 100 μM up to 0.01 μM. The reference compound used for these assays was 5-Fluorouracil (5-Fu), a pyrimidine analogue belonging to the family of antimetabolite. […] Briefly, human colorectal adenocarcinoma cells (CaCo-2 HTB-37^TM Colorectal Adenocarcinoma Human, American Type Culture Collection, Manassas, VA, USA) were grown in Dulbecco’s MEM (DMEM) with 10% heat-inactivated fetal bovine serum, 2 mM L-Alanyl-L-Glutamine, penicillin-streptomycin (50 units-50 μg for mL) and incubated at 37 °C in a humidified atmosphere of 5% CO2, 95% air. CaCo-2 cells were plated in 96 well pates and incubated at 37 °C. The PBn series compounds and 5-FU were prepared as a 1 mM solution in 10 mL with 0.01% DMSO. Then, 24 h after plating, cells were treated with 20 μL of each solution. Untreated cells were used as controls. […] The results were read on a multiwell scanning spectrophotometer (AF2200 plate reader, Eppendorf, Milan, Italy), using a wavelength of 569 nm.
# [2] = tested on: E. faecalis ATCC29212-VSE; assay: MIC and MBC microtiter plate assay; format: cell-based
# [3] = tested on: S.aureus USA300-CAMRSA; assay: MIC and MBC microtiter plate assay; format: cell-based, Staphylococcus aureus
# [4] = tested on: Gram-positive and Gram-negative ATCC strains; assay: MIC and MBC, summary over Gram-positive and Gram-negative strains; format: cell-based; details: bactericidal effect defined as MBC/MIC ≤ 4
# [5] = tested on: E. faecalis ATCC51299-VRE; assay: MIC and MBC microtiter plate assay, also with different inocula; format: cell-based
# [6] = tested on: S.aureus ATCC29213-MSSA; assay: MIC and MBC microtiter plate assay; format: cell-based, Staphylococcus aureus
# [7] = tested on: E. coli ATCC25922; assay: MIC and MBC microtiter plate assay, also with different inocula; format: cell-based, Escherichia coli
# [8] = tested on: A. baumannii ATCC17978; assay: as above; format: cell-based, Acinetobacter baumannii
# [9] = tested on: Gram-positive control strains; assay: MIC and MBC, summary over Gram-positive control strains; format: cell-based, S. aureus and Enterococcus spp.; details: for comparison between MIC and MBC values: Gram-positive control strains
# [10] = tested on: K. pneumoniae ATCC700603; assay: MIC microtiter plate assay; format: cell-based, Klebsiella pneumoniae
# [11] = tested on: K. pneumoniae ATCC BAA-2814; assay: MIC microtiter plate assay; format: cell-based, Klebsiella pneumoniae; details: K. pneumoniae ATCC BAA-2814 (MDR strain)
# [12] = tested on: S.aureus ATCC12598-MSSA; assay: MIC and MBC microtiter plate assay, also with different inocula; format: cell-based, Staphylococcus aureus
# [13] = tested on: P. aeruginosa ATCC27853; assay: MIC microtiter plate assay; format: cell-based, Pseudomonas aeruginosa
# [14] = tested on: S.aureus Mu50-VISA; assay: MIC and MBC microtiter plate assay; format: cell-based, Staphylococcus aureus
# [15] = tested on: S. aureus ATCC29213; set-up: method as in earlier work; details: library for the QSAR model, ref [1]; cited from earlier work
# [16] = E. faecalis ATCC51299-VRE, value in brackets
# [17] = E. faecalis ATCC51299, inoculum 1.00101 (1 × 10^1 CFU/mL)
# [18] = E. faecalis ATCC51299, inoculum 1.00102 (1 × 10^2 CFU/mL)
# [19] = E. faecalis ATCC51299, inoculum 1.00103 (1 × 10^3 CFU/mL)
# [20] = E. faecalis ATCC51299, inoculum 1.00104 (1 × 10^4 CFU/mL)
# [21] = E. faecalis ATCC51299, inoculum 1.00105 (1 × 10^5 CFU/mL, standard)
# [22] = E. faecalis ATCC51299, inoculum 1.00106 (1 × 10^6 CFU/mL)
# [23] = E. faecalis ATCC51299, inoculum 1.00107 (1 × 10^7 CFU/mL)
# [24] = A. baumannii ATCC17978, value in brackets
# [25] = S. aureus ATCC12598, inoculum 1.00101 (1 × 10^1 CFU/mL)
# [26] = S. aureus ATCC12598, inoculum 1.00102 (1 × 10^2 CFU/mL)
# [27] = S. aureus ATCC12598, inoculum 1.00103 (1 × 10^3 CFU/mL)
# [28] = S. aureus ATCC12598, inoculum 1.00104 (1 × 10^4 CFU/mL)
# [29] = S. aureus ATCC12598, inoculum 1.00105 (1 × 10^5 CFU/mL, standard)
# [30] = S. aureus ATCC12598, inoculum 1.00106 (1 × 10^6 CFU/mL)
# [31] = S. aureus ATCC12598, inoculum 1.00107 (1 × 10^7 CFU/mL)
# [32] = S.aureus ATCC12598-MSSA, value in brackets
structure (smiles),measurement,setting,value
CCCCN(CCCC)c1ccc(-c2ccc(C=C3CCCc4c[n+](CC)ccc43)s2)s1.[I-] [PB8],IC50,[1],5.01 µM and 5 µM
same,MBC,[2],4 µg/mL
same,MIC,[2],4 µg/mL
same,MBC,[2]; value in brackets,6.91 µM
same,MIC,[2]; value in brackets,6.91 µM
same,MBC,[3],4 µg/mL
same,MIC,[3],2 µg/mL
same,MBC,[3]; value in brackets,6.91 µM
same,MIC,[3]; value in brackets,3.46 µM
same,MBC/MIC,[4],≤ 4
same,MBC,[5]; E. faecalis ATCC51299-VRE,4 µg/mL
same,MIC,[5]; E. faecalis ATCC51299-VRE,4 mg/L
same,MBC,[5]; [16],6.91 µM
same,MIC,[5]; [16],6.91 µM
same,MIC,[5]; [17],0.5 mg/L and 0.86 μM
same,MIC,[5]; [18],4 mg/L and 6.91 μM
same,MIC,[5]; [19],4 mg/L and 6.91 μM
same,MIC,[5]; [20],4 mg/L and 6.91 μM
same,MIC,[5]; [21],4 mg/L and 6.91 μM
same,MIC,[5]; [22],8 mg/L and 13.83 μM
same,MIC,[5]; [23],32 mg/L and 55.30 μM
same,MBC,[6],8 µg/mL
same,MIC,[6],2 µg/mL
same,MBC,[6]; value in brackets,13.83 µM
same,MIC,[6]; value in brackets,3.46 µM
same,MIC,[7],128 mg/L
same,MIC,[7]; value in brackets,221.22 µM
same,MIC,[8]; A. baumannii ATCC17978,128 mg/L
same,MIC,[8]; [24],221.22 µM
same,comparison between MIC and MBC values,[9],no significant differences
same,MIC,[10],> 128 µg/mL
same,MIC,[10]; value in brackets,> 221.22 µM
same,MIC,[11],> 128 µg/mL
same,MIC,[11]; value in brackets,> 221.22 µM
same,MIC,[12]; [25],0.5 mg/L and 0.86 μM
same,MIC,[12]; [26],2 mg/L and 3.46 μM
same,MIC,[12]; [27],3.46 μM and 2 mg/L
same,MIC,[12]; [28],2 mg/L and 3.46 μM
same,MIC,[12]; [29],2 mg/L and 3.46 μM
same,MIC,[12]; [30],2 mg/L and 3.46 μM
same,MIC,[12]; [31],4 mg/L and 6.91 μM
same,MBC,[12]; S.aureus ATCC12598-MSSA,4 µg/mL
same,MIC,[12]; S.aureus ATCC12598-MSSA,2 mg/L
same,MBC,[12]; [32],6.91 µM
same,MIC,[12]; [32],3.46 µM
same,MIC,[13],> 128 µg/mL
same,MIC,[13]; value in brackets,> 221.22 µM
same,MBC,[14],8 µg/mL
same,MIC,[14],2 µg/mL
same,MBC,[14]; value in brackets,13.83 µM
same,MIC,[14]; value in brackets,3.46 µM
CN(C)c1ccc(/C=C/c2cccc(/C=C/c3ccc(N(C)C)cc3)[n+]2C)cc1.[I-] [PB4],IC50,[1],0.319 µM and 0.32 µM
same,MBC,[2],4 µg/mL
same,MIC,[2],0.5 µg/mL
same,MBC,[2]; value in brackets,7.82 µM
same,MIC,[2]; value in brackets,0.98 µM
same,MBC,[3],2 µg/mL
same,MIC,[3],0.25 µg/mL
same,MBC,[3]; value in brackets,3.91 µM
same,MIC,[3]; value in brackets,0.49 µM
same,MBC/MIC,[4],≤ 4
same,MBC,[5]; E. faecalis ATCC51299-VRE,4 µg/mL
same,MIC,[5]; E. faecalis ATCC51299-VRE,0.5 mg/L
same,MBC,[5]; [16],7.82 µM
same,MIC,[5]; [16],0.98 µM
same,MIC,[5]; [17],0.06 mg/L and 0.12 μM
same,MIC,[5]; [18],0.25 mg/L
same,MIC,[5]; [19],0.12 mg/L
same,MIC,[5]; [20],0.12 mg/L and 0.24 μM
same,MIC,[5]; [21],0.5 mg/L and 0.98 μM
same,MIC,[5]; [22],0.5 mg/L and 0.98 μM
same,MIC,[5]; [23],0.5 mg/L and 0.98 μM
same,MBC,[6],2 µg/mL
same,MIC,[6],0.25 µg/mL
same,MBC,[6]; value in brackets,3.91 µM
same,MIC,[6]; value in brackets,0.49 µM
same,MBC,[7],4 µg/mL
same,MIC,[7],1 mg/L
same,MIC,[7]; inoculum 1.00101 (1 × 10^1 CFU/mL),0.5 mg/L and 0.98 μM
same,MIC,[7]; inoculum 1.00102 (1 × 10^2 CFU/mL),0.5 mg/L and 0.98 μM
same,MIC,[7]; inoculum 1.00103 (1 × 10^3 CFU/mL),0.5 mg/L and 0.98 μM
same,MIC,[7]; inoculum 1.00104 (1 × 10^4 CFU/mL),0.5 mg/L and 0.98 μM
same,MIC,[7]; inoculum 1.00105 (1 × 10^5 CFU/mL),1 mg/L and 1.96 μM
same,MIC,[7]; inoculum 1.00106 (1 × 10^6 CFU/mL),1 mg/L and 1.96 μM
same,MIC,[7]; inoculum 1.00107 (1 × 10^7 CFU/mL),2 mg/L and 3.91 μM
same,MBC,[7]; value in brackets,7.82 µM
same,MIC,[7]; value in brackets,1.96 µM
same,MBC,[8]; A. baumannii ATCC17978,0.5 µg/mL
same,MIC,[8]; A. baumannii ATCC17978,0.25 mg/L
same,MIC,"[8]; A. baumannii ATCC 17978, inoculum 1.00101 (1 × 10^1 CFU/mL)",< 0.25 mg/L and < 0.49 μM
same,MIC,"[8]; A. baumannii ATCC 17978, inoculum 1.00102 (1 × 10^2 CFU/mL)",< 0.25 mg/L and < 0.49 μM
same,MIC,"[8]; A. baumannii ATCC 17978, inoculum 1.00103 (1 × 10^3 CFU/mL)",< 0.49 μM and < 0.25 mg/L
same,MIC,"[8]; A. baumannii ATCC 17978, inoculum 1.00104 (1 × 10^4 CFU/mL)",0.25 mg/L and 0.49 μM
same,MIC,"[8]; A. baumannii ATCC 17978, inoculum 1.00105 (1 × 10^5 CFU/mL)",0.25 mg/L and 0.49 μM
same,MIC,"[8]; A. baumannii ATCC 17978, inoculum 1.00106 (1 × 10^6 CFU/mL)",0.49 µM
same,MIC,"[8]; A. baumannii ATCC 17978, inoculum 1.00107 (1 × 10^7 CFU/mL)",1 mg/L and 1.96 μM
same,MBC,[8]; [24],0.98 µM
same,MIC,[8]; [24],0.49 µM
same,comparison between MIC and MBC values,[9],three values of difference
same,MIC,[9]; over the Gram-positive control strains (S. aureus and Enterococcus spp.),≤ 16 µg/mL
same,MIC,[10],> 128 µg/mL
same,MIC,[10]; value in brackets,> 250.27 µM
same,MIC,[11],64 µg/mL
same,MIC,[11]; value in brackets,125.14 µM
same,MIC,[12]; [25],< 0.015 mg/L and < 0.03 μM
same,MIC,[12]; [26],< 0.015 mg/L and < 0.03 μM
same,MIC,[12]; [27],< 0.03 μM and < 0.015 mg/L
same,MIC,[12]; [28],0.03 mg/L and 0.06 μM
same,MIC,[12]; [29],0.25 mg/L and 0.49 μM
same,MIC,[12]; [30],0.25 mg/L and 0.49 μM
same,MIC,[12]; [31],4 mg/L and 7.82 μM
same,MBC,[12]; S.aureus ATCC12598-MSSA,2 µg/mL
same,MIC,[12]; S.aureus ATCC12598-MSSA,0.25 mg/L
same,MBC,[12]; [32],3.91 µM
same,MIC,[12]; [32],0.49 µM
same,MIC,[13],64 µg/mL
same,MIC,[13]; value in brackets,125.14 µM
same,MBC,[14],2 µg/mL
same,MIC,[14],0.25 µg/mL
same,MBC,[14]; value in brackets,3.91 µM
same,MIC,[14]; value in brackets,0.49 µM
COc1cc(/C=C/c2ccc(O)c(O)c2)cc(OC)c1 [[33]-1],MIC,[15],128 µg/mL
